Test results taken from PubChem BioAssay (NCI).
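Growth conditions: 96-well plates. Treatment: test compound, 48 hours, 5 concentrations. Analysis: linear interpolation between bracketing concentrations; unreached endpoints set to highest concentration. GI50: concentration for 50% inhibition of growth. At the TGI there is no net growth.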

Tests used:
Assay in all cases: growth of human tumour cells (NCI), 48 h
IGROV1 ovarian = tested on: IGROV1 ovarian
HL-60(TB) leukemia = tested on: HL-60(TB) leukemia
HT29 colon = tested on: HT29 colon
SK-MEL-28 melanoma = tested on: SK-MEL-28 melanoma
OVCAR-5 ovarian = tested on: OVCAR-5 ovarian
BT-549 breast = tested on: BT-549 breast
HOP-62 NSCLC = tested on: HOP-62 NSCLC
LOX IMVI melanoma = tested on: LOX IMVI melanoma
SK-MEL-2 melanoma = tested on: SK-MEL-2 melanoma
CCRF-CEM leukemia = tested on: CCRF-CEM leukemia
SR leukemia = tested on: SR leukemia
CAKI-1 renal = tested on: CAKI-1 renal
UACC-62 melanoma = tested on: UACC-62 melanoma
K-562 leukemia = tested on: K-562 leukemia
SF-539 CNS = tested on: SF-539 CNS
KM12 colon = tested on: KM12 colon
HCT-15 colon = tested on: HCT-15 colon
RXF 393 renal = tested on: RXF 393 renal
TK-10 renal = tested on: TK-10 renal
SF-295 CNS = tested on: SF-295 CNS
A498 renal = tested on: A498 renal
SNB-75 CNS = tested on: SNB-75 CNS
786-0 renal = tested on: 786-0 renal
M14 melanoma = tested on: M14 melanoma
T-47D breast = tested on: T-47D breast
UO-31 renal = tested on: UO-31 renal
SW-620 colon = tested on: SW-620 colon
UACC-257 melanoma = tested on: UACC-257 melanoma
A549 NSCLC = tested on: A549 NSCLC
NCI-H460 lung = tested on: NCI-H460 lung
MCF7 breast = tested on: MCF7 breast
PC-3 prostate = tested on: PC-3 prostate
DU-145 prostate = tested on: DU-145 prostate
ACHN renal = tested on: ACHN renal
COLO 205 colon = tested on: COLO 205 colon
EKVX NSCLC = tested on: EKVX NSCLC
U251 CNS = tested on: U251 CNS
SNB-19 CNS = tested on: SNB-19 CNS
MDA-MB-231 breast = tested on: MDA-MB-231 breast
SK-OV-3 ovarian = tested on: SK-OV-3 ovarian
OVCAR-4 ovarian = tested on: OVCAR-4 ovarian
HS 578T breast = tested on: HS 578T breast
HCT-116 colon = tested on: HCT-116 colon
HOP-92 NSCLC = tested on: HOP-92 NSCLC
SK-MEL-5 melanoma = tested on: SK-MEL-5 melanoma
NCI-H23 lung = tested on: NCI-H23 lung
SF-268 CNS = tested on: SF-268 CNS
OVCAR-8 ovarian = tested on: OVCAR-8 ovarian
HCC-2998 colon = tested on: HCC-2998 colon
MALME-3M melanoma = tested on: MALME-3M melanoma
MOLT-4 leukemia = tested on: MOLT-4 leukemia
MDA-MB-435 = tested on: MDA-MB-435
NCI-H226 lung = tested on: NCI-H226 lung
OVCAR-3 ovarian = tested on: OVCAR-3 ovarian
RPMI-8226 leukemia = tested on: RPMI-8226 leukemia
NCI/ADR-RES ovarian = tested on: NCI/ADR-RES ovarian

O=C(NCCc1nccs1)c1cnc2c(S)cccc2c1
GI50 (IGROV1 ovarian): 1.96 µM
TGI (IGROV1 ovarian): 24.7 µM
GI50 (HL-60(TB) leukemia): 10.7 µM
TGI (HL-60(TB) leukemia): 70 µM
GI50 (HT29 colon): 4.34 µM
TGI (HT29 colon): 37 µM
GI50 (SK-MEL-28 melanoma): 3.5 µM
TGI (SK-MEL-28 melanoma): > 100 µM
GI50 (OVCAR-5 ovarian): 10 µM
TGI (OVCAR-5 ovarian): 41.6 µM
GI50 (BT-549 breast): 2.61 µM
TGI (BT-549 breast): > 100 µM
GI50 (HOP-62 NSCLC): 4.13 µM
TGI (HOP-62 NSCLC): 20.9 µM
GI50 (LOX IMVI melanoma): 2.35 µM
TGI (LOX IMVI melanoma): 92.8 µM
GI50 (SK-MEL-2 melanoma): 3.57 µM
TGI (SK-MEL-2 melanoma): 26.5 µM
GI50 (CCRF-CEM leukemia): 1.77 µM
TGI (CCRF-CEM leukemia): > 100 µM
GI50 (SR leukemia): 0.677 µM
TGI (SR leukemia): > 100 µM
GI50 (CAKI-1 renal): 3.22 µM
TGI (CAKI-1 renal): 37.4 µM
GI50 (UACC-62 melanoma): 2.68 µM
TGI (UACC-62 melanoma): 24.1 µM
GI50 (K-562 leukemia): 0.98 µM
TGI (K-562 leukemia): > 100 µM
GI50 (SF-539 CNS): 4.17 µM
TGI (SF-539 CNS): 42.7 µM
GI50 (KM12 colon): 2.88 µM
TGI (KM12 colon): 17.8 µM
GI50 (HCT-15 colon): 3.49 µM
TGI (HCT-15 colon): 88.6 µM
GI50 (RXF 393 renal): 3.07 µM
TGI (RXF 393 renal): 9.29 µM
GI50 (TK-10 renal): 5.8 µM
TGI (TK-10 renal): 19.5 µM
GI50 (SF-295 CNS): 2.8 µM
TGI (SF-295 CNS): 17.1 µM
GI50 (A498 renal): 4.59 µM
TGI (A498 renal): 16.7 µM
GI50 (SNB-75 CNS): 2.78 µM
TGI (SNB-75 CNS): 17.6 µM
GI50 (786-0 renal): 5.33 µM
TGI (786-0 renal): 36 µM
GI50 (M14 melanoma): 3.5 µM
TGI (M14 melanoma): 38.6 µM
GI50 (T-47D breast): 2.37 µM
TGI (T-47D breast): 62.6 µM
GI50 (UO-31 renal): 3.26 µM
TGI (UO-31 renal): 16 µM
GI50 (SW-620 colon): 3.62 µM
TGI (SW-620 colon): 28.7 µM
GI50 (UACC-257 melanoma): 3.77 µM
TGI (UACC-257 melanoma): 15.3 µM
GI50 (A549 NSCLC): 3.18 µM
TGI (A549 NSCLC): 13.3 µM
GI50 (NCI-H460 lung): 0.685 µM
TGI (NCI-H460 lung): 11.4 µM
GI50 (MCF7 breast): 1.02 µM
TGI (MCF7 breast): 37.5 µM
GI50 (PC-3 prostate): 4.39 µM
TGI (PC-3 prostate): 26.6 µM
GI50 (DU-145 prostate): 3.27 µM
TGI (DU-145 prostate): 13.7 µM
GI50 (ACHN renal): 3.36 µM
TGI (ACHN renal): 14.1 µM
GI50 (COLO 205 colon): 1.56 µM
TGI (COLO 205 colon): 3.75 µM
GI50 (EKVX NSCLC): 3.1 µM
TGI (EKVX NSCLC): 38.2 µM
GI50 (U251 CNS): 2.53 µM
TGI (U251 CNS): 16.7 µM
GI50 (SNB-19 CNS): 3.41 µM
TGI (SNB-19 CNS): 33.1 µM
GI50 (MDA-MB-231 breast): 3.33 µM
TGI (MDA-MB-231 breast): 56.4 µM
GI50 (SK-OV-3 ovarian): 3.56 µM
TGI (SK-OV-3 ovarian): 15 µM
GI50 (OVCAR-4 ovarian): 2.72 µM
TGI (OVCAR-4 ovarian): 34 µM
GI50 (HS 578T breast): 6.28 µM
TGI (HS 578T breast): 80.5 µM
GI50 (HCT-116 colon): 1.13 µM
TGI (HCT-116 colon): 10.2 µM
GI50 (HOP-92 NSCLC): 19.8 µM
TGI (HOP-92 NSCLC): 40.8 µM
GI50 (SK-MEL-5 melanoma): 3.2 µM
TGI (SK-MEL-5 melanoma): 16 µM
GI50 (NCI-H23 lung): 3.91 µM
TGI (NCI-H23 lung): > 100 µM
GI50 (SF-268 CNS): 3.66 µM
TGI (SF-268 CNS): 27.1 µM
GI50 (OVCAR-8 ovarian): 4.95 µM
TGI (OVCAR-8 ovarian): 57.4 µM
GI50 (HCC-2998 colon): 10.5 µM
TGI (HCC-2998 colon): 29.1 µM
GI50 (MALME-3M melanoma): 4.03 µM
TGI (MALME-3M melanoma): 52.4 µM
GI50 (MOLT-4 leukemia): 1.14 µM
TGI (MOLT-4 leukemia): > 100 µM
GI50 (MDA-MB-435): 3.85 µM
TGI (MDA-MB-435): 53.5 µM
GI50 (NCI-H226 lung): 5.7 µM
TGI (NCI-H226 lung): 21.4 µM
GI50 (OVCAR-3 ovarian): 2.47 µM
TGI (OVCAR-3 ovarian): 9.21 µM
GI50 (RPMI-8226 leukemia): 4.15 µM
TGI (RPMI-8226 leukemia): > 100 µM
GI50 (NCI/ADR-RES ovarian): 2.97 µM
TGI (NCI/ADR-RES ovarian): > 100 µM
